Source: BindingDB's records for doi:10.1021/acs.jnatprod.1c00014 (Jiangsu University of Science and Technology, 2021)

Molecular target: Maltase-glucoamylase (Homo sapiens, UniProt O43451)
Assay: Inhibition of alpha-glucosidase (unknown origin) preincubated for 5 mins followed by addition of pNPG substrate and measured after 30 mins by spectrophotometric method

Maltase-glucoamylase, sequence (O43451 whole entry): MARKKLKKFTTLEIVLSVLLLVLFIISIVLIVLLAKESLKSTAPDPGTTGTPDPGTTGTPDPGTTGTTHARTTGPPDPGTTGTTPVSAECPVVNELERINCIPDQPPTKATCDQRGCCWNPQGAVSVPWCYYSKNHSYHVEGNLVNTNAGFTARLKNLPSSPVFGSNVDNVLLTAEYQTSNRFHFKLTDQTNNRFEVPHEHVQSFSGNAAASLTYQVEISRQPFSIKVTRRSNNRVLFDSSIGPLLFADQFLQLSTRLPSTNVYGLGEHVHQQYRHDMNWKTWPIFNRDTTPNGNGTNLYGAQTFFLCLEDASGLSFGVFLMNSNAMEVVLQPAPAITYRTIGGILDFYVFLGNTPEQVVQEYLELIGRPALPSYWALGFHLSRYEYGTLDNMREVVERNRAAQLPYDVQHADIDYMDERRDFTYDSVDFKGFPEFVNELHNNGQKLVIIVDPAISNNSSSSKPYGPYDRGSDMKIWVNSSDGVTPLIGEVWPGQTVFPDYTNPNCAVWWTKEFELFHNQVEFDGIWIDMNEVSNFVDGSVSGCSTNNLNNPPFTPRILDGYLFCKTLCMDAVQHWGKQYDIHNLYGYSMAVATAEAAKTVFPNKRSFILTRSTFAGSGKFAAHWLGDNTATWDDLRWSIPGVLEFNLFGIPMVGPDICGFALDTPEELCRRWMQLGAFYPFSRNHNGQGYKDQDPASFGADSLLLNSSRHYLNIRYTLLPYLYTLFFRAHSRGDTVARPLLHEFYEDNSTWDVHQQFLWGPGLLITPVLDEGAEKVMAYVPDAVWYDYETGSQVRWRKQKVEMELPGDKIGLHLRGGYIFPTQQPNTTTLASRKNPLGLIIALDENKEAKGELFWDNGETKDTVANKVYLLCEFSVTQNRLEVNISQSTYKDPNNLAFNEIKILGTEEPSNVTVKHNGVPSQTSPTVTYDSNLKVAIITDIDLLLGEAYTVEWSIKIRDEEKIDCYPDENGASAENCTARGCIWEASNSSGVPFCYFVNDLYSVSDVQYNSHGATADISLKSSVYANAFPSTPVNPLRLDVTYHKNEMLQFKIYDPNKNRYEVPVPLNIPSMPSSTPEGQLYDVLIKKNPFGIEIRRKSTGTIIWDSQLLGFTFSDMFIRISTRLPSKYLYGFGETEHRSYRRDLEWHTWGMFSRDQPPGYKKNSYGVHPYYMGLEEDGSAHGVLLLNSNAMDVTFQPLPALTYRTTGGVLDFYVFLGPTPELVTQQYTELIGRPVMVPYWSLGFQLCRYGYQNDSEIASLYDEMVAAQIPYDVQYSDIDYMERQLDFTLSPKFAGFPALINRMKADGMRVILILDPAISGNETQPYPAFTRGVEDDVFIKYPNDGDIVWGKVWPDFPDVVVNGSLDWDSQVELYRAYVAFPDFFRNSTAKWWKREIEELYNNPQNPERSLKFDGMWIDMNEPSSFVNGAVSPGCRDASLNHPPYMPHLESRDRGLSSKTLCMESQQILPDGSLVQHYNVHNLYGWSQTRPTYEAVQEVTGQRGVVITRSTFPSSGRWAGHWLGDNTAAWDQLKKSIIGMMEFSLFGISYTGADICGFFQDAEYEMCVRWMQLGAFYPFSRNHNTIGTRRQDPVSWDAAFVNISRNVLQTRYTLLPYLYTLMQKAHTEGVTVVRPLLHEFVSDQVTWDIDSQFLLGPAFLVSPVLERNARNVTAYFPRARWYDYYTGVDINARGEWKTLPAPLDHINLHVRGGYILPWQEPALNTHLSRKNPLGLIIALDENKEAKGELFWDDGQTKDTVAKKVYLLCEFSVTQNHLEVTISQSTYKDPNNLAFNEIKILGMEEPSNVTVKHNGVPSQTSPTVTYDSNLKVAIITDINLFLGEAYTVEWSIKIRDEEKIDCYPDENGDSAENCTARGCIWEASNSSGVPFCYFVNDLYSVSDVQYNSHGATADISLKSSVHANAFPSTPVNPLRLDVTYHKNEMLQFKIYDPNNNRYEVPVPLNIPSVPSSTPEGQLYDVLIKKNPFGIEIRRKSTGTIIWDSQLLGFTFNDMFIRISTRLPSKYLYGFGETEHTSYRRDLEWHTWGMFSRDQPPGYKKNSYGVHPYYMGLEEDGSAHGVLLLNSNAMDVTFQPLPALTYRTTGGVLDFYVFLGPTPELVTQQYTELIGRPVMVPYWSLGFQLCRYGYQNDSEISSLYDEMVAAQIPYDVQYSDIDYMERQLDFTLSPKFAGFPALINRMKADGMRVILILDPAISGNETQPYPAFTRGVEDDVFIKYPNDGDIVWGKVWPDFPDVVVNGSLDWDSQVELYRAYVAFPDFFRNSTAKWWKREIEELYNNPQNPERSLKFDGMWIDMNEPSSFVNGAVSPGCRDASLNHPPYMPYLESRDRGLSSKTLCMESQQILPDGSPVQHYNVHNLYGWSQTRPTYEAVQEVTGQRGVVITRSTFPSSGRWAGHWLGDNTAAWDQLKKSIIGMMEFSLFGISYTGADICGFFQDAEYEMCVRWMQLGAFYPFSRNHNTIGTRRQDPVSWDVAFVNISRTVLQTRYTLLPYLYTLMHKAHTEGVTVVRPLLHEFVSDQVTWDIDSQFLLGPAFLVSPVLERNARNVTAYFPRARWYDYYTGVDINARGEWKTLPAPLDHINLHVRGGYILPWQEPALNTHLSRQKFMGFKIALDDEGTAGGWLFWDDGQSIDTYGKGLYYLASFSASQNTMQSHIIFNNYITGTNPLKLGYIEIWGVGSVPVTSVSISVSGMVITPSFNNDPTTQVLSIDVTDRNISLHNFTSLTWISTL

Row | Structure (SMILES) | IC50 [nM]
1 | COc1ccc(-c2oc3cc(OC)cc(OC)c3c(=O)c2OCCCCCN2C[C@H](O)[C@@H](O)[C@H](O)[C@H]2CO)cc1 | 40600
2 | COc1ccc(-c2oc3cc(OC)cc(OC)c3c(=O)c2OCCCCCCCCN2C[C@H](O)[C@@H](O)[C@H](O)[C@H]2CO)cc1 | 1780
3 | COc1ccc(-c2oc3cc(OC)cc(OC)c3c(=O)c2OCCCCCCCCCCCN2C[C@H](O)[C@@H](O)[C@H](O)[C@H]2CO)cc1 | 240
